What was measured:
[1] = Clinical case: therapeutic effect on AZOOR, static visual field examination (Humphrey visual field analyzer); assay type: in vivo; details: one AZOOR patient
Description: Case: History of the present illness: The patient became aware of dark and blurred vision in the center of their visual field on September 1, 1999, and visited Ohyachi Kyoritsu Eye Clinic on September 4 in the same year.. […] ERG was subnormal and normal for the right and left eyes, respectively. […] FAG detected mild leakage of fluorescein from the optic disc of the right eye. In view of these observations, optic nerve disorder was suspected and the patient was made to visit a brain surgeon in the neighborhood to receive CT and MRT examinations. However, no abnormality was found. […] To treat the eye symptom, the clinic prescribed oral medications such as drug for ameliorating circulation for a while, but no improvement of visual field was observed. Thus, on October 1, 1999, the patient was referred to the Department of ophthalmology at Sapporo Medical University, School of Medicine for close examination. Results of the first examination: Visual acuity was Vd=1.2 and Vs=1.2. Although pupils were round and equal in size, the right eye was RAPD(+) but no oculomotor abnormalities were observed. […] In the static visual field examination, reduction of the sensitivity in the central visual field was observed. Course of disease: Oral administration of prednisolone (40mg/day) was started on October 1, 1999. […]

apoptosis caused by CAR = assay: Therapeutic effect on cancer-associated neuropathy: ERG in rats after intravitreal anti-recoverin and anti-hsp70 antibodies; assay type: in vivo; details: Lewis rats, light for 24 hours; nilvadipine 3.2 mg/kg/day peritoneal for two weeks with antibody infusion into vitreous body; follow-up five weeks; compared with predonine 0.6 µg/kg/day i.m. and cyclosporine A 10 mg/kg/day i.m.; Fig. 1
Method: Test animal: Lewis rats (8 weeks of age) Treatment group 5 animals (10 eyes) Control group 5 animals (10 eyes) Photoenvironment: Apoptosis (cell death) was induced under light for 24 hours. Test drugs: Nilvadipine (3.2 mg/kg/day) by peritoneal administration (dissolving solution) polyethylene glycol 400: ethanol: water = 1:1:2 Predonine (0.6 µg/kg/day) by intramuscular injection (dissolving solution) PBS (phosphate buffer solution) Cyclosporine A (10 mg/kg/day) by intramuscular injection (dissolving solution) olive oil Antibodies: anti-recoverin antibody (5 µl/eye) anti-hsp70 antibody (5 µl/eye) Administration method: Test drugs were administered for two weeks along with infusion of antibodies into vitreous body of the eye. Follow-up observation was performed for five weeks after the start of administration. PBS alone was administered to the control group.
In Fig. 1, the vertical axis represents ERG (electroretinogram) amplitude, and the horizontal axis is the lapse of time in weeks. Δ: nilvadipine group; □: predonine group; ◇: cyclosporin A group; and ○: control group.

Row | SMILES | visual field ([1]; oral prednisolone 40 mg/day reduced stepwise to 10 mg/day, October-November 1999, Figs. 2 and 3) | static visual field examination / visual sensitivity ([1]; two months after start of oral nilvadipine, following 0.3 ml Depo-Medrol sub-Tenon's injection to both eyes, Figs. 4 and 5) | ERG (electroretinogram) amplitude (apoptosis caused by CAR)
1 | C[C@]12C=CC(=O)C=C1CC[C@@H]1[C@@H]2[C@@H](O)C[C@@]2(C)[C@H]1CC[C@]2(O)C(=O)CO [prednisolone] | could not improve the visual field |  | 
2 | COC(=O)C1=C(C#N)NC(C)=C(C(=O)OC(C)C)C1c1cccc([N+](=O)[O-])c1 (stereo not drawn) [nilvadipine, isopropyl 6-cyano-5-methoxycarbonyl-2-methyl-4-(3-nitrophenyl)-1,4-di hydropyridine-3-carboxylate ester] |  | remarkable improvement of visual sensitivity | more effective than predonine and cyclosporin A
